# Starred links: 1 amine or outer side, 2 acyl side, 3 side chain; linkers in the order of their positions; H or OH if unused. Positions of bridges follow the written chain, without caps; N, C: chain ends. Non-standard residues stand in square brackets, D forms with d. Residues, ends and D or L forms follow the SMILES beside them. *: point of attachment. εLys(α-Octadecanedioyl) = O=C(O)CCCCCCCCCCCCCCCCC(=O)N[C@@H](CCCCN*)C(=O)O; X12 = O=C(O)CCCCCCCCCCCCCCCCCCC(=O)N[C@@H](CCC(=O)NCCCOCCOCCOCCCN*)C(=O)O; X6 = O=C(O)CCCCCCCCCCCCCCCCC(=O)N[C@@H](CCC(=O)NCCCOCCOCCOCCCN*)C(=O)O; X4 = O=C(O)CCCCCCCCCCCCCCCCC(=O)N[C@@H](CC(=O)NCCCOCCOCCOCCCN*)C(=O)O; Trp(1-CH2COOH) = N[C@@H](Cc1cn(CC(=O)O)c2ccccc12)C(=O)O; X9 = O=C(O)CCCCCCCCCCCCCCCCC(=O)N[C@@H](CCN*)C(=O)O; Phe(3,4,5-F3) = N[C@@H](Cc1cc(F)c(F)c(F)c1)C(=O)O; Phe(4-F) = N[C@@H](Cc1ccc(F)cc1)C(=O)O; d(cisHyp) = O=C(O)[C@H]1C[C@@H](O)CN1; βAsp = O=C(O)[C@H](CC(=O)[*:2])N[*:1]; Palmitoyl = CCCCCCCCCCCCCCCC(=O)*; Hyp = O=C(O)[C@@H]1C[C@@H](O)CN1; NHhexadecyl = CCCCCCCCCCCCCCCCN*; NMeF = CN[C@@H](Cc1ccccc1)C(=O)O; NMeNle = CCCC[C@H](NC)C(=O)O; Pip = O=C(O)[C@@H]1CCCCN1; NMeA = CN[C@@H](C)C(=O)O; Orn = NCCC[C@H](N)C(=O)O; Pra = C#CC[C@H](N)C(=O)O; Aun = NCCCCCCCCCCC(=O)O; Dab = NCC[C@H](N)C(=O)O; Dap = NC[C@H](N)C(=O)O; AEA = NCCOCC(=O)O
# Molecular target: T1, PD-L1 (Homo sapiens, UniProt Q9NZQ7)
# T1 construct: hPDL1(19-239)-TVMV-His; made in house; host or cells: HEK293T
# T1 sequence (Q9NZQ7 with tags, fused parts or gaps): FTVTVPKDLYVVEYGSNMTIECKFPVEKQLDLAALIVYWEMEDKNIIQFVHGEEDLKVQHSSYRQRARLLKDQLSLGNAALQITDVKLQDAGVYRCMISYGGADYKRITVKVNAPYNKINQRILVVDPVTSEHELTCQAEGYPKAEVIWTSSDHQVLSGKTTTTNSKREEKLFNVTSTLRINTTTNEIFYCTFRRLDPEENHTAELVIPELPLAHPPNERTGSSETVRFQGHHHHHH
# Assay: PD-1/PD-L1 Homogenous Time-Resolved Fluorescence (HTRF) binding assay (PD-1-Ig/PD-L1-His)
# Details: inhibition of PD-1-Ig binding to PD-L1-TVMV-His; value given as range class; read-out: HTRF IC50
# Outline: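 HTRF competition in dPBS with 0.1% BSA and 0.05% Tween-20: 20 nM PD-1-Ig added after 15 min compound pre-incubation with 10 nM PD-L1-His, then another 15 min. Signal (665/620 nm) after 30 min with APC anti-His (20 nM) and Eu anti-Ig (1 nM).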
row,Structure (SMILES),IC50
1,CCCCCCCCCCCCCCCC(=O)NCCCC[C@H](NC(=O)CNC(=O)[C@H](CO)NC(=O)CNC(=O)[C@H](CO)NC(=O)CNC(=O)[C@@H]1CSCC(=O)N[C@@H](Cc2ccc(O)cc2)C(=O)N(C)[C@@H](C)C(=O)N[C@@H](CC(N)=O)C(=O)N2CCC[C@H]2C(=O)N[C@@H](CCN)C(=O)N[C@@H](CC(C)C)C(=O)N2C[C@H](O)C[C@H]2C(=O)N[C@@H](Cc2c[nH]c3ccccc23)C(=O)N[C@@H](CO)C(=O)N[C@@H](Cc2c[nH]c3ccccc23)C(=O)N(C)[C@@H](CCCC)C(=O)N(C)[C@@H](CCCC)C(=O)N[C@@H](CCCNC(=N)N)C(=O)N1)C(N)=O [Example 11021] ({CH2CO}-Y[NMeA]NP[Dab]L[Hyp]WSW[NMeNle][NMeNle]RCGSGSGK(Palmitoyl)-NH2; thioether N-14),100 to 1600 nM
2,CCCC[C@H]1C(=O)N(C)[C@@H](CCCC)C(=O)N[C@@H](CC(C)C)C(=O)N[C@H](C(=O)NCC(=O)N[C@@H](CCC(=O)NCCCOCCOCCOCCCNC(=O)CC[C@H](NC(=O)CCCCCCCCCCCCCCCCC(=O)O)C(=O)O)C(=O)O)CSCC(=O)N[C@@H](Cc2ccc(F)cc2)C(=O)N2CCCC[C@H]2C(=O)N[C@@H](CC(=O)O)C(=O)N2CCC[C@H]2C(=O)N[C@@H](CN)C(=O)N[C@@H](CCC(=O)O)C(=O)N2C[C@H](O)C[C@H]2C(=O)N[C@@H](Cc2c[nH]c3ccccc23)C(=O)N[C@@H](CCN)C(=O)N[C@@H](Cc2cn(CC(=O)O)c3ccccc23)C(=O)N1C [Example 11263] ({CH2CO}-[Phe(4-F)][Pip]DP[Dap]E[Hyp]W[Dab][Trp(1-CH2COOH)][NMeNle][NMeNle]LCGE(X6)-OH; thioether N-14),0.3 to 9.9 nM
3,CCCC[C@H]1C(=O)N(C)[C@@H](CCCC)C(=O)N[C@@H](CC(C)C)C(=O)N[C@H](C(=O)NCC(=O)N[C@@H](CC(=O)NCCCC[C@H](NC(=O)CCCCCCCCCCCCCCCCC(=O)O)C(=O)O)C(=O)O)CSCC(=O)N[C@@H](Cc2ccc(O)cc2)C(=O)N(C)[C@@H](C)C(=O)N[C@@H](CC(N)=O)C(=O)N2CCC[C@H]2C(=O)N[C@@H](CN)C(=O)N[C@@H](CC(C)C)C(=O)N2C[C@H](O)C[C@H]2C(=O)N[C@@H](Cc2c[nH]c3ccccc23)C(=O)N[C@@H](CCN)C(=O)N[C@@H](Cc2cn(CC(=O)O)c3ccccc23)C(=O)N1C [Example 11176] ({CH2CO}-Y[NMeA]NP[Dap]L[Hyp]W[Dab][Trp(1-CH2COOH)][NMeNle][NMeNle]LCGD(εLys(α-Octadecanedioyl))-OH; thioether N-14),10 to 99 nM
4,CCCC[C@H]1C(=O)N(C)[C@@H](CCCC)C(=O)N[C@@H](CC(C)C)C(=O)N[C@H](C(=O)NCC(=O)N[C@@H](CC(=O)NCC[C@H](NC(=O)CCCCCCCCCCCCCCCCC(=O)O)C(=O)O)C(=O)O)CSCC(=O)N[C@@H](Cc2ccc(OC)cc2)C(=O)N2CCCC[C@H]2C(=O)N[C@@H](CC(N)=O)C(=O)N2CCC[C@H]2C(=O)N[C@@H](Cc2c[nH]cn2)C(=O)N[C@@H](CCC(N)=O)C(=O)N2C[C@H](O)C[C@H]2C(=O)N[C@@H](Cc2c[nH]c3ccccc23)C(=O)N[C@@H](CCN)C(=O)N[C@@H](Cc2cn(CC(=O)O)c3ccccc23)C(=O)N1C [Example 13156] ({CH2CO}-Y(Me)[Pip]NPHQ[Hyp]W[Dab][Trp(1-CH2COOH)][NMeNle][NMeNle]LCGD(X9)-OH; thioether N-14),0.3 to 9.9 nM
5,CCCC[C@H]1C(=O)N(C)[C@@H](CCCC)C(=O)N[C@@H](CC(C)C)C(=O)N[C@H](C(=O)NCC(=O)N[C@@H](CCC(=O)O)C(=O)NCCCOCCOCCOCCCNC(=O)CC[C@H](NC(=O)CCCCCCCCCCCCCCCCCCC(=O)O)C(=O)O)CSCC(=O)N[C@@H](Cc2ccc(O)cc2)C(=O)N(C)[C@@H](C)C(=O)N[C@@H](CC(N)=O)C(=O)N2CCC[C@H]2C(=O)N[C@@H](CN)C(=O)N[C@@H](CC(C)C)C(=O)N2C[C@H](O)C[C@H]2C(=O)N[C@@H](Cc2c[nH]c3ccccc23)C(=O)N[C@@H](CCN)C(=O)N[C@@H](Cc2cn(CC(=O)O)c3ccccc23)C(=O)N1C [Example 11226] ({CH2CO}-Y[NMeA]NP[Dap]L[Hyp]W[Dab][Trp(1-CH2COOH)][NMeNle][NMeNle]LCGE-X12; thioether N-14),0.3 to 9.9 nM
6,CCCC[C@H]1C(=O)N(C)[C@@H](CCCC)C(=O)N[C@@H](CC(C)C)C(=O)N[C@H](C(=O)NCC(=O)N[C@@H](CCC(=O)O)C(=O)NCCCOCCOCCOCCCNC(=O)C[C@H](NC(=O)CCCCCCCCCCCCCCCCC(=O)O)C(=O)O)CSCC(=O)N[C@@H](Cc2ccc(O)cc2)C(=O)N(C)[C@@H](C)C(=O)N[C@@H](CC(N)=O)C(=O)N2CCC[C@H]2C(=O)N[C@@H](CN)C(=O)N[C@@H](CC(C)C)C(=O)N2C[C@H](O)C[C@@H]2C(=O)N[C@@H](Cc2c[nH]c3ccccc23)C(=O)N[C@@H](CCN)C(=O)N[C@@H](Cc2cn(CC(=O)O)c3ccccc23)C(=O)N1C [Example 11257] ({CH2CO}-Y[NMeA]NP[Dap]L[d(cisHyp)]W[Dab][Trp(1-CH2COOH)][NMeNle][NMeNle]LCGE-X4; thioether N-14),0.3 to 9.9 nM

# Other lines, results leading:
row,IC50,Structure (SMILES)
1,0.3 to 9.9 nM,CCCC[C@H]1C(=O)N(C)[C@@H](CCCC)C(=O)N[C@@H](CC(C)C)C(=O)N[C@H](C(=O)NCC(=O)N[C@@H](Cc2cn(CC[C@H](NC(=O)CCCCCCCCCCCCCCCCC(=O)O)C(=O)O)nn2)C(=O)O)CSCC(=O)N[C@@H](Cc2ccc(O)cc2)C(=O)N2CCCC[C@H]2C(=O)N[C@@H](CC(N)=O)C(=O)N2CCC[C@H]2C(=O)N[C@@H](CNC)C(=O)N[C@@H](CC(C)C)C(=O)N2C[C@H](O)C[C@H]2C(=O)N[C@@H](Cc2c[nH]c3ccccc23)C(=O)N[C@@H](CCN)C(=O)N[C@@H](Cc2cn(CC(=O)O)c3ccccc23)C(=O)N1C [Example 13133]
2,0.3 to 9.9 nM,CCCC[C@H]1C(=O)N(C)[C@@H](CCCC)C(=O)N[C@@H](CC(C)C)C(=O)N[C@H](C(=O)NCC(=O)N[C@@H](CC(=O)NCCOCC(=O)NCC[C@H](NC(=O)CCCCCCCCCCCCCCCCC(=O)O)C(=O)O)C(=O)O)CSCC(=O)N[C@@H](Cc2ccc(O)cc2)C(=O)N2CCCC[C@H]2C(=O)N[C@@H](CC(N)=O)C(=O)N2CCC[C@H]2C(=O)N[C@@H](CN)C(=O)N[C@@H](CC(C)C)C(=O)N2C[C@H](O)C[C@H]2C(=O)N[C@@H](Cc2c[nH]c3ccccc23)C(=O)N[C@@H](CCN)C(=O)N[C@@H](Cc2cn(CC(=O)O)c3ccccc23)C(=O)N1C [Example 13159] ({CH2CO}-Y[Pip]NP[Dap]L[Hyp]W[Dab][Trp(1-CH2COOH)][NMeNle][NMeNle]LCG[βAsp][AEA]-X9; thioether N-14)
3,0.3 to 9.9 nM,C#CC[C@H](NC(=O)[C@@H]1CSCC(=O)N[C@@H](Cc2ccc(O)cc2)C(=O)N(C)[C@@H](C)C(=O)N[C@@H](CC(N)=O)C(=O)N2CCC[C@H]2C(=O)N[C@@H](CN)C(=O)N[C@@H](CC(C)C)C(=O)N2C[C@H](O)C[C@H]2C(=O)N[C@@H](Cc2c[nH]c3ccccc23)C(=O)N[C@@H](CCN)C(=O)N[C@@H](Cc2cn(CC(=O)O)c3ccccc23)C(=O)N(C)[C@@H](CCCC)C(=O)N(C)[C@@H](CCCC)C(=O)N[C@@H](CCC(=O)O)C(=O)N1)C(=O)O [INT130AG] ({CH2CO}-Y[NMeA]NP[Dap]L[Hyp]W[Dab][Trp(1-CH2COOH)][NMeNle][NMeNle]EC[Pra]-OH; thioether N-14)
4,100 to 1600 nM,CCCCCCCCCCCCCCCCNC(=O)CCCCCCCCCCNC(=O)CNC(=O)[C@@H]1CSCC(=O)N[C@@H](Cc2ccc(O)cc2)C(=O)N(C)[C@@H](C)C(=O)N[C@@H](CC(N)=O)C(=O)N2CCC[C@H]2C(=O)N[C@@H](Cc2cnc[nH]2)C(=O)N[C@@H](CC(C)C)C(=O)N2C[C@H](O)C[C@H]2C(=O)N[C@@H](Cc2c[nH]c3ccccc23)C(=O)N[C@@H](CO)C(=O)N[C@@H](Cc2c[nH]c3ccccc23)C(=O)N(C)[C@@H](CCCC)C(=O)N(C)[C@@H](CCCC)C(=O)N[C@@H](CCCNC(=N)N)C(=O)N1 [Example 11112] ({CH2CO}-Y[NMeA]NPHL[Hyp]WSW[NMeNle][NMeNle]RCG[Aun]-NHhexadecyl; thioether N-14)
5,100 to 1600 nM,CCCCCCCCCCCCCCCCNC(=O)CNC(=O)CNC(=O)[C@@H]1CSCC(=O)N[C@@H](Cc2ccc(O)cc2)C(=O)N(C)[C@@H](C)C(=O)N[C@@H](CC(N)=O)C(=O)N2CCC[C@H]2C(=O)N[C@@H](CCN)C(=O)N[C@@H](CC(C)C)C(=O)N2C[C@H](O)C[C@H]2C(=O)N[C@@H](Cc2c[nH]c3ccccc23)C(=O)N[C@@H](CO)C(=O)N[C@@H](Cc2c[nH]c3ccccc23)C(=O)N(C)[C@@H](CCCC)C(=O)N(C)[C@@H](CCCC)C(=O)N[C@@H](CCCNC(=N)N)C(=O)N1 [Example 11104] ({CH2CO}-Y[NMeA]NP[Dab]L[Hyp]WSW[NMeNle][NMeNle]RCGG-NHhexadecyl; thioether N-14)
6,0.3 to 9.9 nM,CCCC[C@H]1C(=O)N(C)[C@@H](CCCC)C(=O)N[C@@H](CC(C)C)C(=O)N[C@H](C(=O)NCC(=O)NCC(=O)NCC(=O)NCCCCCCCCCCC(=O)O)CSCC(=O)N[C@@H](Cc2ccc(O)cc2)C(=O)N(C)[C@@H](C)C(=O)N[C@@H](CC(N)=O)C(=O)N2CCC[C@H]2C(=O)N[C@@H](CN)C(=O)N[C@@H](CC(C)C)C(=O)N2C[C@H](O)C[C@H]2C(=O)N[C@@H](Cc2c[nH]c3ccccc23)C(=O)N[C@@H](CCN)C(=O)N[C@@H](Cc2cn(CC(=O)O)c3ccccc23)C(=O)N1C [Example 11091] ({CH2CO}-Y[NMeA]NP[Dap]L[Hyp]W[Dab][Trp(1-CH2COOH)][NMeNle][NMeNle]LCGGG[Aun]-OH; thioether N-14)
7,0.3 to 9.9 nM,"C#CC[C@H](NC(=O)CNC(=O)[C@@H]1CSCC(=O)N[C@@H](Cc2cc(F)c(F)c(F)c2)C(=O)N(C)[C@@H](Cc2ccccc2)C(=O)N(C)[C@@H](CCCC)C(=O)N2CCC[C@@H]2C(=O)N[C@@H](CC(=O)O)C(=O)N[C@@H](C(C)C)C(=O)N(C)[C@@H](Cc2ccccc2)C(=O)N[C@@H](CCCN)C(=O)N2CCC[C@@H]2C(=O)N[C@@H](Cc2c[nH]c3ccccc23)C(=O)N[C@@H](Cc2ccc(O)cc2)C(=O)N[C@@H](CC(C)C)C(=O)N1)C(N)=O [INT 1400K, ClAc-F3Phe-mPhe-mNle-dPro-Asp-Val-mPhe-Orn-dPro-Trp-Tyr-Leu-Cys-Gly-[(S)-propargylglycine]] ({CH2CO}-[Phe(3,4,5-F3)][NMeF][NMeNle][dP]DV[NMeF][Orn][dP]WYLCG[Pra]-NH2; thioether N-13)"
